Experimental findings from ChEMBL document CHEMBL1146119, “Amino functionalized novel cholic acid derivatives induce HIV-1 replication and syncytia formation in T cells” (J Med Chem, 2006) are described below.

Active and inactive are the calls of the source. The rule behind the calls is not given here.

This assay concerns Human immunodeficiency virus 1. Briefly: Induction of HIV1 NL4-3 virus replication in CEM-GFP cells. Type of assay: functional, organism-based.

As for `COC(=O)CC[C@@H](C)[C@H]1CC[C@H]2[C@H]3C(=C(N)C(=O)[C@]12C)[C@@]1(C)CC[C@@H](OC(C)=O)C[C@H]1C[C@H]3OC(C)=O`, the outcome was Active.

`COC(=O)CC[C@@H](C)[C@H]1CC[C@H]2[C@H]3[C@H]([C@H](N=[N+]=[N-])C(=O)[C@]12C)[C@@]1(C)CC[C@@H](OC(C)=O)C[C@H]1C[C@H]3OC(C)=O`: the result was Active.

Turning to `COC(=O)CC[C@@H](C)[C@H]1CC[C@H]2[C@H]3[C@H]([C@H](N)C(=O)[C@]12C)[C@@]1(C)CC[C@@H](OC(C)=O)C[C@H]1C[C@H]3OC(C)=O`, the result was Active.

For the molecule `COC(=O)CC[C@@H](C)[C@H]1CC[C@H]2[C@@H]3[C@H](OC(C)=O)C[C@@H]4C[C@H](OC(C)=O)CC[C@]4(C)[C@H]3C[C@H](O)[C@]12C`, the result was inactive.

In the case of `C[C@H](CCC(=O)O)[C@H]1CC[C@H]2[C@@H]3[C@H](O)C[C@@H]4C[C@H](O)CC[C@]4(C)[C@H]3C[C@H](O)[C@]12C`, the result was inactive.

Take `COC(=O)CC[C@@H](C)[C@H]1CC[C@H]2[C@H]3[C@H]([C@@H](N)[C@@H](O)[C@]12C)[C@@]1(C)CC[C@@H](OC(C)=O)C[C@H]1C[C@H]3OC(C)=O`: the outcome was Active.

As for `COC(=O)CC[C@@H](C)[C@H]1CC[C@H]2[C@H]3[C@H]([C@H](N)[C@H](O)[C@]12C)[C@@]1(C)CC[C@@H](OC(C)=O)C[C@H]1C[C@H]3OC(C)=O`, the outcome was Active.

With `COC(=O)CC[C@@H](C)[C@H]1CC[C@H]2[C@H]3[C@H]([C@@H](N=[N+]=[N-])C(=O)[C@]12C)[C@@]1(C)CC[C@@H](OC(C)=O)C[C@H]1C[C@H]3OC(C)=O`, the outcome was Active.
